From PubChem BioAssay (NCI)
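Step 1: Grow cells in 96-well plates. Step 2: Expose to compound for 48 hours at 5 concentrations. Step 3: Interpolate endpoints linearly; if unreached, use highest concentration. TGI marks complete inhibition of growth.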

Experiments:
Assay in all cases: NCI tumour cell line growth inhibition, 48 h
A549 NSCLC = system: A549 NSCLC
KM12 colon = system: KM12 colon
RXF 393 renal = system: RXF 393 renal
HOP-18 NSCLC = system: HOP-18 NSCLC
NCI-H226 lung = system: NCI-H226 lung
SW-620 colon = system: SW-620 colon
SNB-19 CNS = system: SNB-19 CNS
OVCAR-5 ovarian = system: OVCAR-5 ovarian
DMS 114 small cell lung = system: DMS 114 small cell lung
LXFL 529 NSCLC = system: LXFL 529 NSCLC
SR leukemia = system: SR leukemia
RPMI-8226 leukemia = system: RPMI-8226 leukemia
M14 melanoma = system: M14 melanoma
DLD-1 colon = system: DLD-1 colon
OVCAR-4 ovarian = system: OVCAR-4 ovarian
DMS 273 small cell lung = system: DMS 273 small cell lung
COLO 205 colon = system: COLO 205 colon
RXF-631 renal = system: RXF-631 renal
SF-268 CNS = system: SF-268 CNS
HCT-116 colon = system: HCT-116 colon
MALME-3M melanoma = system: MALME-3M melanoma
MOLT-4 leukemia = system: MOLT-4 leukemia
IGROV1 ovarian = system: IGROV1 ovarian
EKVX NSCLC = system: EKVX NSCLC
XF 498 CNS = system: XF 498 CNS
U251 CNS = system: U251 CNS
SF-295 CNS = system: SF-295 CNS
SN12C renal = system: SN12C renal
786-0 renal = system: 786-0 renal
HCT-15 colon = system: HCT-15 colon
UACC-62 melanoma = system: UACC-62 melanoma
OVCAR-3 ovarian = system: OVCAR-3 ovarian
HT29 colon = system: HT29 colon
NCI-H460 lung = system: NCI-H460 lung
TK-10 renal = system: TK-10 renal
SK-MEL-2 melanoma = system: SK-MEL-2 melanoma
SK-MEL-5 melanoma = system: SK-MEL-5 melanoma
KM20L2 colon = system: KM20L2 colon
SK-MEL-28 melanoma = system: SK-MEL-28 melanoma
K-562 leukemia = system: K-562 leukemia
ACHN renal = system: ACHN renal
HOP-92 NSCLC = system: HOP-92 NSCLC
OVCAR-8 ovarian = system: OVCAR-8 ovarian
SNB-78 CNS = system: SNB-78 CNS
CAKI-1 renal = system: CAKI-1 renal
SK-OV-3 ovarian = system: SK-OV-3 ovarian
M19-MEL melanoma = system: M19-MEL melanoma
HL-60(TB) leukemia = system: HL-60(TB) leukemia
NCI-H23 lung = system: NCI-H23 lung
CCRF-CEM leukemia = system: CCRF-CEM leukemia
HOP-62 NSCLC = system: HOP-62 NSCLC
HCC-2998 colon = system: HCC-2998 colon
LOX IMVI melanoma = system: LOX IMVI melanoma
SF-539 CNS = system: SF-539 CNS
UO-31 renal = system: UO-31 renal
UACC-257 melanoma = system: UACC-257 melanoma

FC(F)(F)C1(Cl)C(c2ccccc2)=C1c1ccccc1
TGI (A549 NSCLC): 28.9 µM
TGI (KM12 colon): 29 µM
TGI (RXF 393 renal): 26.6 µM
TGI (HOP-18 NSCLC): 35.6 µM
TGI (NCI-H226 lung): 29.2 µM
TGI (SW-620 colon): 27 µM
TGI (SNB-19 CNS): 31.9 µM
TGI (OVCAR-5 ovarian): 31.3 µM
TGI (DMS 114 small cell lung): 25.6 µM
TGI (LXFL 529 NSCLC): 26.3 µM
TGI (SR leukemia): > 100 µM
TGI (RPMI-8226 leukemia): > 100 µM
TGI (M14 melanoma): 25.6 µM
TGI (DLD-1 colon): 28.3 µM
TGI (OVCAR-4 ovarian): 26.6 µM
TGI (DMS 273 small cell lung): 27.6 µM
TGI (COLO 205 colon): 30.3 µM
TGI (RXF-631 renal): 29.2 µM
TGI (SF-268 CNS): 30.8 µM
TGI (HCT-116 colon): 27.4 µM
TGI (MALME-3M melanoma): 28.5 µM
TGI (MOLT-4 leukemia): > 100 µM
TGI (IGROV1 ovarian): 29.5 µM
TGI (EKVX NSCLC): 29.9 µM
TGI (XF 498 CNS): 26.5 µM
TGI (U251 CNS): 28.2 µM
TGI (SF-295 CNS): 28.1 µM
TGI (SN12C renal): 29.3 µM
TGI (786-0 renal): 31.1 µM
TGI (HCT-15 colon): 27.8 µM
TGI (UACC-62 melanoma): 27 µM
TGI (OVCAR-3 ovarian): 31.2 µM
TGI (HT29 colon): 29.3 µM
TGI (NCI-H460 lung): 30.4 µM
TGI (TK-10 renal): 35.4 µM
TGI (SK-MEL-2 melanoma): 28.5 µM
TGI (SK-MEL-5 melanoma): 24 µM
TGI (KM20L2 colon): 30.1 µM
TGI (SK-MEL-28 melanoma): 28.1 µM
TGI (K-562 leukemia): 26.2 µM
TGI (ACHN renal): 30.2 µM
TGI (HOP-92 NSCLC): 28.4 µM
TGI (OVCAR-8 ovarian): 29.1 µM
TGI (SNB-78 CNS): 33.1 µM
TGI (CAKI-1 renal): 25.3 µM
TGI (SK-OV-3 ovarian): 32.4 µM
TGI (M19-MEL melanoma): 27.7 µM
TGI (HL-60(TB) leukemia): 24.4 µM
TGI (NCI-H23 lung): 29.3 µM
TGI (CCRF-CEM leukemia): 12.1 µM
TGI (HOP-62 NSCLC): 32.7 µM
TGI (HCC-2998 colon): 31.8 µM
TGI (LOX IMVI melanoma): 23.8 µM
TGI (SF-539 CNS): 29.6 µM
TGI (UO-31 renal): 31.9 µM
TGI (UACC-257 melanoma): 27.2 µM
